Each structure is given as a SMILES string. ≈ marks a conversion by molar mass, not a printed value.

A short description of data set [1]: Solubility in FaSSIF (Fasted State Simulated Intestinal Fluid). It is filed as physicochemical. The conditions noted are these: kinetic from dmso stock, FaSSIF pH 6.5, 25° C. A digest of the protocol: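 Apparent solubility measured in FaSSIF at pH 6.5 from a 10 mM DMSO stock, shaken at 25° C, 1100 RPM for 2 h and then filtered. Filtrate quantified by LC/MS/MS against a 3 μM standard with internal standard, corrected by dilution factor.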

In data set [2] the test system is MDA-MB-436 cells. As to the kind of experiment: CTG Protocol (MDA-MB-436 GI50), antiproliferative activity. The conditions noted are these: Homo sapiens, 168 h; MDA-MB-436 cells (BRCA1 mutation), 7-day incubation, CellTiter-Glo. Type of data set: cell-based, human. A digest of the protocol:
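BRCA1-mutant MDA-MB-436 cells were seeded at 1000 cells/well in DMEM, left overnight, then exposed to a 9-point, 3-fold compound series for 7 days at 37 °C, 5% CO2. Viability was read by CellTiter-Glo luminescence. % inhibition was plotted against concentration to derive GI50.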

Data set [3] can be described thus: Liver microsomal stability (HLM). It is filed as in vitro ADME. The following applies: human, liver microsomes, human liver microsomes 0.5 mg/mL, 1 μM compound, NADPH.

For `COc1ncnc(C2CC2)c1-c1nc(C)c2cc(C3CCN(C)CC3)c(=O)n(Cc3ccc(-c4nc(C(F)(F)F)cn4C4CC4)cc3)c2n1` [Compound I-157, 8-({4-[1-Cyclopropyl-4-(Trifluoromethyl)Imidazol-2-Yl]Phenyl}Methyl)-2-(4-Cyclopropyl-6-Methoxypyrimidin-5-Yl)-4-Methyl-6-(1-Methylpiperidin-4-Yl)Pyrido[2,3-d]Pyrimidin-7-One], the solubility (as a rule, the dissolved amount per volume that the medium holds) at 2 h in data set [1] was at least 100 µM. Further, the GI50 (as a rule, the concentration at which growth is held to half of that of the control) in data set [2] was below 10 nM. For the same compound, the microsomal CLint – broadly, a measure of how fast metabolising enzymes remove a compound, apart from limits set by blood flow – at 1 μM in data set [3] is below 10 µL/min/mg.
Compound `COc1ncnc(C2CC2)c1-c1ncc2cc(-c3cn(C)nn3)c(=O)n(Cc3ccc(-c4nc(C(F)(F)F)cn4C4CC4)cc3)c2n1` [Compound I-150] came in with a solubility at 2 h in data set [1] of 10 to 100 µM (≈ 6.41 to 64.1 µg/mL). The GI50 in data set [2] fell in the range of 10 to 100 nM. Besides, the microsomal CLint at 1 μM in data set [3] is below 10 µL/min/mg.
For `COc1cc(Cn2c(=O)ccc3c(C)nc(-c4c(OC)ncnc4C4CC4)nc32)cc(F)c1-c1nc(C(F)(F)F)cn1C1CC1` [Compound I-163] the same measures were 10 to 100 µM (≈ 6.22 to 62.2 µg/mL), below 10 nM and below 10 µL/min/mg.
`COc1ncnc(C2CC2)c1-c1nc(C)c2cc(-c3cnn(C)c3)c(=O)n(Cc3ccc(-c4nc(C(F)(F)F)cn4C4CC4)cc3)c2n1` [Compound I-148, 8-({4-[1-Cyclopropyl-4-(Trifluoromethyl)Imidazol-2-Yl]Phenyl}Methyl)-2-(4-Cyclopropyl-6-Methoxypyrimidin-5-Yl)-4-Methyl-6-(1-Methylpyrazol-4-Yl)Pyrido[2,3-d]Pyrimidin-7-One] had a solubility at 2 h in data set [1] of at least 100 µM. For the same compound, the GI50 in data set [2] is below 10 nM. Moreover, the microsomal CLint at 1 μM in data set [3] was below 10 µL/min/mg.
For `COc1ncnc(C2CC2)c1-c1ncc2cc(-c3ncnn3C)c(=O)n(Cc3ccc(-c4nc(C(F)(F)F)cn4C(C)C)cc3)c2n1` [Compound I-168, 2-(4-Cyclopropyl-6-Methoxypyrimidin-5-Yl)-8-({4-[1-Isopropyl-4-(Trifluoromethyl)Imidazol-2-Yl]Phenyl}Methyl)-6-(2-Methyl-1,2,4-Triazol-3-Yl)Pyrido[2,3-d]Pyrimidin-7-One] the same measures were 10 to 100 µM (≈ 6.43 to 64.3 µg/mL), 10 to 100 nM and below 10 µL/min/mg.
For `COc1ncnc(C2CC2)c1-c1ncc2cc(-c3cnn(C)n3)c(=O)n(Cc3ccc(-c4nc(C(F)(F)F)cn4C4CC4)cc3)c2n1` [Compound I-151] the same measures were 10 to 100 µM (≈ 6.41 to 64.1 µg/mL), 10 to 100 nM and below 10 µL/min/mg.
`COc1ncnc(C2CC2)c1-c1ncc2cc(-c3c(C)noc3C)c(=O)n(Cc3ccc(-c4nc(C(F)(F)F)cn4C4CC4)cc3)c2n1` [Compound I-155]: in data set [1], the solubility at 2 h is 10 to 100 µM (≈ 6.55 to 65.5 µg/mL). Also, the GI50 in data set [2] was below 10 nM. Also, the microsomal CLint at 1 μM in data set [3] was below 10 µL/min/mg.
For `COc1ncnc(C2CC2)c1-c1ncc2ccc(=O)n(Cc3ccc(-c4cccc(C(F)(F)F)n4)cc3)c2n1` [Compound I-36, 2-(4-cyclopropyl-6-methoxypyrimidin-5-yl)-8-({4-[6-(trifluoromethyl)pyridin-2-yl]phenyl}methyl)pyrido[2,3-d]pyrimidin-7-one] the same measures were below 10 µM, 10 to 100 nM and 10 to 50 µL/min/mg.
For `COc1ncnc(C2CC2)c1-c1nc(C)c2cc(-c3ncnn3C)c(=O)n(Cc3ccc(-c4nc(C(F)(F)F)cn4C4CC4)cc3)c2n1` [Compound I-167, 8-({4-[1-Cyclopropyl-4-(Trifluoromethyl)Imidazol-2-Yl]Phenyl}Methyl)-2-(4-Cyclopropyl-6-Methoxypyrimidin-5-Yl)-4-Methyl-6-(2-Methyl-1,2,4-Triazol-3-Yl)Pyrido[2,3-d]Pyrimidin-7-One] the same measures were 10 to 100 µM (≈ 6.55 to 65.5 µg/mL), 10 to 100 nM and below 10 µL/min/mg.
For `COc1cc(Cn2c(=O)ccc3c(C)nc(-c4c(OC)ncnc4C4CC4)nc32)ccc1-c1nc(C(F)(F)F)cn1C1CC1` [Compound I-152, 8-({4-[1-cyclopropyl-4-(trifluoromethyl)imidazo]-2-yl]-3-methoxyphenylmethyl)-2-(4-cyclopropyl-6-methoxypyrimidin-5-yl)-4-methylpyrido[2,3-d]pyrimidin-7-one] the same measures were at least 100 µM, below 10 nM and below 10 µL/min/mg.
As for `COc1ncnc(C2CC2)c1-c1ncc2ccc(=O)n(Cc3ccc(-c4nc(C(F)(F)F)cn4C(C)C)cc3)c2c1F` [Compound I-27, 7-(4-cyclopropyl-6-methoxypyrimidin-5-yl)-8-fluoro-1-({4-[1-isopropyl-4-(trifluoromethyl)imidazol-2-yl]phenyl}methyl)-1,6-naphthyridin-2-one], in data set [1], the solubility at 2 h was below 10 µM. The compound also showed a GI50 in data set [2] of 10 to 100 nM. This compound also showed a microsomal CLint at 1 μM in data set [3] below 10 µL/min/mg.
With `COc1ncnc(C2CC2)c1-c1ncc2cc(-c3ncn(C)n3)c(=O)n(Cc3ccc(-c4nc(C(F)(F)F)cn4C4CC4)cc3)c2n1` [Compound I-153, 8-({4-[1-cyclopropyl-4-(trifluoromethyl)imidazo]-2-yl]phenylmethyl)-2-(4-cyclopropyl-6-methoxypyrimidin-5-yl)-6-(1-methyl-1,2,4-triazol-3-yl)pyrido[2,3-d]pyrimidin-7-one], in data set [1], the solubility at 2 h is at least 100 µM. Moreover, the GI50 in data set [2] was 10 to 100 nM. Besides, the microsomal CLint at 1 μM in data set [3] was below 10 µL/min/mg.
For `COc1ncnc(C2CC2)c1-c1ncc2cc(-c3ncnn3C)c(=O)n(Cc3ccc(-c4nc(C(F)(F)F)cn4C4CC4)cc3)c2n1` [Compound I-156] the same measures were at least 100 µM, 10 to 100 nM and below 10 µL/min/mg.

The record behind these values is patent publication US20240092779A1, “USP1 INHIBITORS AND USES THEREOF” (Zentaur Therapeutics USA Inc., priority 2022, published 2024).
